Read-outs that look alike come from different tables or passages of the source. Square brackets hold non-standard residues; d marks the D form. Peptide text beside a SMILES is read from it. Hyp = O=C(O)[C@@H]1C[C@@H](O)CN1
Assays:
MsCI4 (MsCI4WW/FF) [1] = biological target: T1, MsCI4 (MsCI4WW/FF) (Magnetospirillum gryphiswaldense, UniProt A4TVL0, W36F/W59F); conditions: MANT-uracil reporter
[2] = biological target: T2, VHL/EloB/EloC complex (VBC) (Homo sapiens, UniProt P40337); experiment: Competitive MST assay, unlabeled peptides against VHL and FAM reporter peptide; format: binding; conditions: ± confidence interval
T2 construct: VHL54-213 fused to an N-terminal TwinStrep-tag; TwinStrep-tag (TEV site) (N, cleaved yes); made in house; host or cells: E. coli BL21(DE3)

[3] = biological target: T3, human CRBN (hCRBN) thalidomide binding domain (hTBD) (Homo sapiens, UniProt Q96SW2); experiment: Initial fluorescence (quenching) titration of hTBD against BODIPY-uracil; conditions: initial fluorescence measurement, 200 nM BODIPY-uracil
T3 construct: 319-425; GST (thrombin site) (N, cleaved yes); made in house; host or cells: E. coli Rosetta 2(DE3)pLysS

[4] = biological target: T4, Magnetospirillum gryphiswaldense cereblon isoform 4 (MsCI4) (Magnetospirillum gryphiswaldense, UniProt A4TVL0); format: binding; conditions: initial fluorescence measurement, 200 nM BODIPY-uracil
T4 construct: made in house
T4 sequence (A4TVL0 1-124): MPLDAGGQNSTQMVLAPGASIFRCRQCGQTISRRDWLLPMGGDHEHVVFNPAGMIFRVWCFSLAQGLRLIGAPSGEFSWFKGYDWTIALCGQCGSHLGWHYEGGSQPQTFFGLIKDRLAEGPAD

[5] = biological target: T3, human CRBN (hCRBN) thalidomide binding domain (hTBD); experiment: Competitive MST assay with BODIPY-uracil reporter and hTBD; conditions: for binding to hTBD in the MST assay (words; n.b., no binding): 10 µM hTBD/200 nM BODIPY-uracil
MsCI4 (MsCI4WW/FF) [6] = biological target: T1, MsCI4 (MsCI4WW/FF); conditions: cited from earlier work
[7] = biological target: T4, Magnetospirillum gryphiswaldense cereblon isoform 4 (MsCI4); format: binding; conditions: competitive DMSO titration
[8] = IC50, FAM-11mer competition, 570 nM VBC/20 nM FAM-11mer reporter
[9] = IC50, FAM-19mer competition, 80 nM VBC/20 nM FAM-19mer reporter

O=C1CN(/N=C/c2ccccc2)C(=O)N1 [1-Benzylidene-aminohydantoin, 1-benzylideneaminohydantoin]
binding to MsCI4 in the FRET assay (words) (MsCI4 (MsCI4WW/FF) [1]): absence of affinity

O=C1CN(/N=C/c2ccccc2[N+](=O)[O-])C(=O)N1 [2-NP-AHD, 1-(2-nitrobenzylideneamino)hydantoin]
binding to MsCI4 in the FRET assay (words) (MsCI4 (MsCI4WW/FF) [1]): absence of affinity

CC[C@H](C)[C@H](NC(=O)[C@H](Cc1ccc(O)cc1)NC(=O)[C@@H]1C[C@@H](O)CN1C(=O)[C@H](C)NC(=O)[C@H](CC(C)C)NC(=O)[C@H](C)NC(=O)[C@H](CCC(=O)O)NC(=O)[C@@H](N)CC(=O)O)C(=O)N1CCC[C@H]1C(=O)N[C@@H](CCSC)C(=O)N[C@@H](CC(=O)O)C(=O)O [11mer] (H-DEALA[Hyp]YIPMD-OH)
IC50 [2, 8]: 1.8 ± 0.81 µM
IC50 [2, 9]: 1.42 ± 0.95 µM

CC[C@H](C)[C@H](NC(=O)[C@H](Cc1ccc(O)cc1)NC(=O)[C@@H]1C[C@@H](O)CN1C(=O)[C@H](C)NC(=O)[C@H](CC(C)C)NC(=O)[C@H](C)NC(=O)[C@H](CCC(=O)O)NC(=O)[C@@H](N)CC(=O)O)C(=O)N1CCC[C@H]1C(=O)N[C@@H](CCSC)C(=O)N[C@@H](CC(=O)O)C(=O)N[C@@H](CC(=O)O)C(=O)N[C@@H](CC(=O)O)C(=O)N[C@@H](Cc1ccccc1)C(=O)N[C@@H](CCC(N)=O)C(=O)N[C@@H](CC(C)C)C(=O)N[C@@H](CCCNC(=N)N)C(=O)N[C@@H](CO)C(=O)N[C@@H](Cc1ccccc1)C(=O)O [19mer]
IC50 [2, 8]: 0.803 ± 0.45 µM
IC50 [2, 9]: 0.572 ± 0.26 µM

CC1=CC(C)=[N+]2C1=C(CCC(=O)NCCn1ccc(=O)[nH]c1=O)c1c(C)cc(C)n1[B-]2(F)F [BODIPY-uracil]
Kd [3]: 11 µM
Kd [4]: 3.8 µM

O=C1CN(/N=C/c2ccc([N+](=O)[O-])o2)C(=O)N1 [Nitrofurantoin, nitrofurantoin]
binding to MsCI4 in the FRET assay (words) (MsCI4 (MsCI4WW/FF) [1]): do not show binding
binding to MsCI4 in the FRET assay (words) (MsCI4 (MsCI4WW/FF) [1]; listed as nitrofurantoin): did not show any binding
binding to hTBD in the MST assay (words; n.b., no binding) [5]: did not show any binding

O=c1ccn([C@@H]2O[C@H](COP(=O)(O)O)[C@@H](O)[C@H]2O)c(=O)[nH]1 [UMP, uridine-5′-monophosphate]
binding to hTBD in the MST assay (words; n.b., no binding) [5]: abolished binding completely

O=c1ccn([C@@H]2O[C@H](CO)[C@@H](O)[C@H]2O)c(=O)[nH]1 [Uridine, uridine]
affinity to MsCI4 in the FRET assay (MsCI4 (MsCI4WW/FF) [6]): high affinity

DMSO
Ki as corresponding concentration of DMSO, hTBD ([5]; competitive DMSO titration): 1.0 % (v/v)
Ki as corresponding concentration of DMSO, MsCI4 [7]: 0.08 % (v/v)

— paper PMC7812675 (ACS Medicinal Chemistry Letters, 2020)
